No end group written: not given here.
How the values were obtained:
S. aureus USA300 LAC [1] = test: Inhibition of biofilm attachment (XTT); assay type: cell-based, Staphylococcus aureus; details: 12.5 µM; 1 h, XTT
Excerpt: Antimicrobial effects of the peptides are different on diverse forms of bacteria. The free and motile forms cultivated in laboratories are the planktonic bacteria onto which the peptides and antibiotics can have direct effects. However, the activity of the microbicides can be reduced to the biofilm forms where bacteria are less exposed and hidden inside the shield. The development of the biofilms starts with the attachment of the individual cells on the substratum followed by biofilm growth and maturation into more solid biomass. We tested the ability of WW295 and WW298 in fighting the biofilms of S. aureus USA300 LAC at the two stages. […] These 96-well commercial plates were pre-treated commercially with tissue culture to enhance cell adhesion.
This experiment was performed to measure the ability of the peptide to inhibit bacterial attachment, the initial step for biofilm formation. In short, an overnight culture of S. aureus USA300 was grown in TSB media to an optical density (600 nm) of ∼1.0. […] Live cells in the biofilms were then quantitated using XTT [2,3-bis(2-methyloxy-4-nitro-5-sulfophenyl)-2H-tertazolium-5-carboxanilide] assay by following the manufacturer’s instructions with modifications. […] Absorbance at 450 nm (only media with XTT containing wells served as the blank) was obtained using a Chromate^TM microtiter plate reader. […]

E. coli ML35p = test: Simultaneous outer and inner membrane permeation (nitrocefin / ONPG); assay type: cell-based, Escherichia coli; details: 3.1 µM
Excerpt: To confirm the mechanism of action, we also performed membrane permeation using a reporter strain of E. coli ML35p. This strain enabled simultaneous monitoring of membrane permeation of both the inner and outer membranes of Gram-negative bacterium E. coli. Both WW295 and WW298 were included in the experiment. […] This is indicated by the sharp development of absorbance at 490 nm for nitrocefin (panel A) and at 420 nm for ONPG (panel B).
The E. coli ML-35p strain was utilized to probe the permeation of both the outer membrane (OM) and inner membrane (IM). This strain was engineered to have two membrane reporters. Nitrocefin is used for detection of OM permeabilization. Nitrocefin is excluded from the periplasm. […] The chromogenic cleavage product was spectrophotometrically monitored at 490 nm. […] However, permeabilization of the IM helps ONPG to enter cytoplasm and get cleaved by cytoplasmic β-galactosidase into o-nitrophenol, which can be detected spectrophotometrically at 420 nm. […] Absorbances at both 490 and at 420 nm were monitored using FLUOstar Omega (BMG, Labtech, NC, USA) simultaneously. After shaking at 100 rpm, readings were taken every 2 min for a total of 40 min at 37 °C. Data were analyzed using the MARS data analysis software provided by the manufacturer and representative plots were made using the GraphPad Prism 7 software.

S. aureus USA300 LAC [2] = test: Disruption of 24 h established biofilms (XTT); assay type: cell-based, Staphylococcus aureus; details: 24 h treatment
Procedure: We also compared the effects of the peptides on established biofilms (24 h). […] When cells are alive (in the absence of peptide), the cell-permeant calcein-AM dye could enter the cells and gave green color as a consequence of the removal of acetoxymethyl (AM) esters by intracellular esterase (Figure 7A). When the cells were dead due to membrane damage by the peptide, the red dye ethidium homodimer (non-membrane permeable) could enter the cell and become red by binding to nucleic acids (Figure 7B).
The antibiofilm activity of the peptide against 24 h established biofilms was evaluated as previously described. In short, S. aureus USA300 LAC (10^5 CFU/mL) was made from exponential phase bacteria in TSB media and 180 μL were distributed to each well of the microtiter plate (Corning Costar Cat No. 3595, Amsterdam, The Netherlands). The plates were incubated at 37 °C for 24 h to form a biofilm. Culture treated with water served as a positive control while media without bacterial inoculation served as the negative control. Media were then pipetted out and the attached biofilms were washed with 1× PBS to remove the planktonic bacteria. Each well of the plate was then filled with 20 μL of 10× peptide solution and 180 μL of fresh TSB media and the plates were further incubated at 37 °C for 24 h. Media were then pipetted out and the wells were washed with 1× PBS to remove planktonic cells. The live cells in biofilms were estimated by XTT assay as mentioned above.

S. aureus USA300 LAC [3] = test: Membrane depolarization, DiBAC4(3); assay type: cell-based, Staphylococcus aureus; details: 12.5 µM
Procedure: Bacteria surfaces are negative and cationic peptides are able to neutralize the negative charge, thereby reducing membrane potential. To test this possibility, we evaluated the peptides against S. aureus USA300 LAC using a fluorescent indicator dye, the DiBAC4(3) (Figure 5).
The overnight culture of S. aureus USA300 LAC was grown in TSB media to the exponential phase. Cells were then pelleted and washed with PBS twice, and re-suspended in twice the volume of PBS containing 25 mM glucose for 15 min at 37 °C. For membrane depolarization measurements, 250 nM (final concentration) of the dye DiBAC4(3) (bis-(1,3-dibutylbarbituric acid) trimethine oxonol (ANASPEC, Fremont, CA, USA) was added, and vortexed gently. Ninety microliters of the energized bacteria solution were then added in a 96-well microtiter plate (Corning COSTAR). The plate was immediately placed into a FLUOstar Omega (BMG LABTECH Inc., Cary, NC, USA) microplate reader and fluorescence was measured for 20 min. Once the readings are stabilized, 10 μL of peptide solution were added and the fluorescence readings were continued for another 40 min. Measurements were done at an excitation and emission wavelengths of 485 and 520 nm, respectively. Triton X-100 (0.1%) was included as a positive control.

A. baumannii B28-16 = assay type: cell-based, Acinetobacter baumannii; details: B28-16
Procedure: (§1) The antimicrobial activity spectrum of the WW peptide series was performed on a panel of Gram-positive and -negative bacteria using the standard broth micro-dilution method with minor modifications as described. […] There was a small change in the case of Pseudomonas aeruginosa and Acinetobacter baumannii up to two-fold. Four-fold changes were found for Staphylococcus aureus, Staphylococcus epidermidis, Escherichia coli, and Bacillus subtilis. However, we observed over eight-fold MIC changes for Klebsiella pneumoniae and vancomycin-resistant enterococcus (VRE). […] We also observed more than eight-fold changes in minimal bacterial killing concentrations.
(§2) The antibacterial activity of peptides was evaluated using a standard broth microdilution protocol with minor modifications as previously described. In brief, logarithmic phase bacterial cultures (i.e., optical density at 600 nm ≈ 0.5) were diluted to OD600~0.001 and partitioned into a 96-well polystyrene microplate at 90 μL per well. After treatment with 10 μL of peptide solutions two-fold diluted to various concentrations, microplates were incubated at 37 °C overnight and read on a ChroMate 4300 Microplate Reader at 630 nm (GMI, Ramsey, MN). […] Minimal bactericidal concentration (MBC) was determined by plating the clear wells at MIC or above. The peptide concentration that caused no bacterial growth on the petri dish is MBC.

E. coli K12 = assay type: cell-based, Escherichia coli; details: K12
Procedure: as §1, §2

S. aureus USA300 = assay type: cell-based, Staphylococcus aureus; details: USA300
Procedure: as §2

B. subtilis 167 = assay type: cell-based, Bacillus subtilis; details: 167
Procedure: as §1, §2

E. coli ATCC 25922 = assay type: cell-based, Escherichia coli; details: ATCC 25922
Procedure: (§3) To gain additional insight, we also compared the effects of physiological saline and human serum on the antibacterial activities of WW291-WW298 using both E. coli and S. aureus (Table 3). In our assays, salts and serum were present during the entire course of the experiment. […] Thus, WW295 and WW298 stand out in terms of activity robustness (bold in Table 3).
as §2

[4] = tested on: monkey kidney Vero E6 cells; assay type: cell-based
Procedure: Peptides were assayed for potential in vitro toxicity against human keratinocytes (HaCaT) and THP-1 cells as previously described. THP-1 monocytes were differentiated into macrophages by adding 30 ng/mL of phorbol 12-myristate 13-acetate (PMA; Sigma-Aldrich) to RPMI 1640 supplemented with 10% fetal calf serum culture (FCS) medium for 16 h. Briefly, cells were seeded at a density of 3 × 10^4 per well in a tissue culture 96-well plate in DMEM/RPMI supplemented with 10% fetal bovine serum (FBS), and incubated at 37 °C in a 5% CO2 atmosphere for 24 h. African green monkey kidney Vero E6 cells were cultivated in EMEM in the same manner. Before antimicrobial treatment, wells were replaced with serum free media and treated with peptides at different concentrations for one hour. After incubation, the cells were washed and incubated with 100 μL of DMEM media containing 20 μL of 3-(4,5-dimethylthiazol-2-yl)-5-(3-carboxymethoxyphenyl)-2-(4-sulfophenyl)-2H-tetrazolium (MTS) reagent for two hours at 37 °C. […] Absorbance readings at 492 nm were taken using a ChroMate microplate reader (GMI, Ramsey, MN, USA).

human red blood cells = test: Hemolytic assay; assay type: cell-based; details: red cells of human
Procedure: (§4) Hemolytic assays of peptides were performed as previously described. Briefly, human red blood cells (hRBCs) obtained from UNMC Blood Bank, or chicken or porcine blood cells purchased from commercial sources as previously described, were washed three times with phosphate buffer saline (PBS) and diluted to a 2% solution (V/v). After peptide treatment, incubation at 37 °C for one hour, and centrifugation at 13,000 rpm, aliquots of the supernatant were carefully transferred to a fresh 96-well microplate. The amount of hemoglobin released was measured at 545 nm. The percent lysis was calculated by assuming 100% release when human blood cells were treated with 2% Triton X-100, and 0% release when incubated with PBS buffer. The peptide concentration that caused 50% lysis of hRBCs is defined as HC50.

chicken red blood cells = test: Hemolytic assay; assay type: cell-based
Procedure: as §4

S. aureus Mu50 = assay type: cell-based, Staphylococcus aureus; details: Mu50
Procedure: as §1, §2

E. faecium VRE = assay type: cell-based; details: VRE
Procedure: as §1, §2

S. aureus USA300 LAC [5] = assay type: cell-based, Staphylococcus aureus; details: USA300
Procedure: as §3, §2

K. pneumonia ATCC 13883 = details: cited from earlier work
Excerpt: Table 2 Antibacterial activities of the WW peptides against various bacteria. | column: Minimal Inhibitory Concentration (MIC, μM) / KP ^a

P. aeruginosa PAO1 = assay type: cell-based, Pseudomonas aeruginosa; details: PAO1
Procedure: as §1, §2

Compound: CCCCCCCCCC(=O)N[C@@H](Cc1c[nH]c2ccccc12)C(=O)N[C@H](CC(N)=O)C(=O)N[C@@H](CC(=O)O)C(=O)N[C@@H]1C(=O)NCC(=O)N[C@@H](CCCN)C(=O)N[C@@H](CC(=O)O)C(=O)N[C@H](C)C(=O)N[C@@H](CC(=O)O)C(=O)NCC(=O)N[C@H](CO)C(=O)N[C@@H]([C@H](C)CC(=O)O)C(=O)N[C@@H](CC(=O)c2ccccc2N)C(=O)O[C@@H]1C [daptomycin, reference compound]
- inhibition of MRSA adherence (S. aureus USA300 LAC [1]): ~ 50%
- outer and inner membrane permeation (nitrocefin 490 nm, ONPG 420 nm) (E. coli ML35p): poor in membrane permeation
- disruption of established biofilms (24 h) (S. aureus USA300 LAC [2]; 3.1 µM): much less effective than WW298
- disruption of established biofilms (24 h) (S. aureus USA300 LAC [2]; 6.25 µM): eradicating almost all the established biofilm
- membrane depolarization (DiBAC4(3) fluorescence) (S. aureus USA300 LAC [3]): significantly less membrane depolarization

Compound: WWWLRKIW [WW291]
- Minimal Inhibitory Concentration (MIC), AB (A. baumannii B28-16): 6.25 µM
- Minimal Inhibitory Concentration (MIC), EC (E. coli K12): 6.2 to 12.5 µM
- MBC, USA300 (S. aureus USA300): 6.2 µM
- Minimal Inhibitory Concentration (MIC), BS (B. subtilis 167): 6.25 µM
- MIC, +150 mM NaCl (E. coli ATCC 25922): 12.5 µM
- MIC, +10% Human Serum (E. coli ATCC 25922): >25 µM
- MIC, TSB (E. coli ATCC 25922): 6.2 to 12.5 µM
- Vero Cells, concentration that caused 50% cell death (LC50) [4]: 100 µM
- Human RBC, concentration that caused 50% red blood cell lysis (HC50) (human red blood cells): 30 µM
- Chicken RBC, concentration that caused 50% red blood cell lysis (HC50) (chicken red blood cells): 50 µM
- Minimal Inhibitory Concentration (MIC), SA (S. aureus Mu50): 3.1 µM
- Minimal Inhibitory Concentration (MIC), VRE (E. faecium VRE): 25 µM
- MIC, +150 mM NaCl (S. aureus USA300 LAC [5]): 3.1 µM
- MIC, +10% Human Serum (S. aureus USA300 LAC [5]): 25 µM
- MIC, TSB (S. aureus USA300 LAC [5]): 3.1 µM
- Minimal Inhibitory Concentration (MIC), KP (K. pneumonia ATCC 13883): 12.5 µM
- Minimal Inhibitory Concentration (MIC), PA (P. aeruginosa PAO1): 50 µM

From publication PMC7600788, “Sequence Permutation Generates Peptides with Different Antimicrobial and Antibiofilm Activities” (Pharmaceuticals, 2020)
